Measurements as given in patent publication US20240239775A1, “FXR REGULATOR, PREPARATION METHOD THEREFOR, PHARMACEUTICAL COMPOSITION THEREOF AND USE THEREOF” (QINGDAO RUIJI MEDICAL TECHNOLOGY CO., LTD., priority 2021, published 2024).

biological target: T1, FXR (Homo sapiens, UniProt Q96RI1); experiment: FXR antagonist screening by TR-FRET (LanthaScreen TR-FRET FXR co-activation assay kit); assay type: biochemical; settings: Table 1.1, FXR antagonistic activity; TR-FRET with CDCA; geometric means of at least two independent runs
T1 construct: 5 μL of 20 nM FXR-LBD Complete Coregulator buffer G; purchased ThermoFisher PV4833
T1 sequence (Q96RI1 262-486 limits assumed): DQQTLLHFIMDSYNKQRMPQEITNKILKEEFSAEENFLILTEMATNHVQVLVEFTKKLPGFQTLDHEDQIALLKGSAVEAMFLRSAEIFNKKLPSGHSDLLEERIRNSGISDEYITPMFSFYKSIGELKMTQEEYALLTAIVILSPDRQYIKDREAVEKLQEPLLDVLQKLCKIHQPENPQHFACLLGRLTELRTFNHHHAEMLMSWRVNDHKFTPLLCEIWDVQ
Experimental: FXR activity was evaluated by time-resolved fluorescence resonance energy transfer (TR-FRET) assay, using LanthaScreen™ TR-FRET FXR co-activation assay kit (ThermoFisher, Cat. PV4833). For agonist screening, 10 μL of Complete Coregulator buffer G containing the corresponding concentration of the compound to be tested, 5 μL of 20 nM FXR-LBD Complete Coregulator buffer G, and 5 μL of 2.0 μM Fluorescein-SRC2-2/20 nM Tb-anti-GST antibody Complete Coregulator buffer G were added to each well of a 384-well black plate (Coring) in sequence. […] Three duplicate wells were set up for each compound, with CDCA as the positive compound and DMSO as the solvent control. For antagonist screening, 5 μL of Complete Coregulator buffer G containing the corresponding concentration of the compound to be tested, 5 μL of 20 nM FXR-LBD Complete Coregulator buffer G, 5 μL of 200 μM CDCA FXR-LBD Complete Coregulator buffer G, and 5 μL of 2.0 μM Fluorescein-SRC2-2/20 nM Tb-anti-GST antibody Complete Coregulator buffer G were added to each well of a 384-well black plate (Coring) in sequence and incubated at room temperature for 10 h. Following operations were the same as those for agonist screening

SMILES	IC50 [µM]
CCOC(=O)c1oc2ccc(S(=O)(=O)N(CCc3ccccc3)Cc3ccc(F)cc3)cc2c1C [Example M4-28, ethyl 3-methyl-5-(N-(4-fluorobenzyl)-N-phenethylsulfamoyl)benzofuran-2-carboxylate]	50 to 100
CCOC(=O)c1oc2ccc(S(=O)(=O)N(CCc3ccccc3)Cc3ccc(C(=O)OC(C)(C)C)cc3)cc2c1C [Example M4-40, ethyl 3-methyl-5-(N-(4-(tert-butoxycarbonyl)benzyl)-N-phenethylsulfamoyl)benzofuran-2-carboxylate]	50 to 100
CCOC(=O)c1oc2ccc(S(=O)(=O)N(CCc3ccccc3)CCc3ccccc3)cc2c1C [Example M8-13, ethyl 3-methyl-5-(N,N-diphenylethylsulfamoyl)benzofuran-2-carboxylate]	50 to 100
CCOC(=O)c1oc2ccc(S(=O)(=O)N(CCc3ccccc3)Cc3ccccc3C)cc2c1C [Example M4-17, ethyl 3-methyl-5-(N-(2-methylbenzyl)-N-phenethylsulfamoyl)benzofuran-2-carboxylate]	50 to 100
CCOC(=O)c1oc2ccc(S(=O)(=O)N(CCc3ccccc3)Cc3ccc(C(C)=O)cc3)cc2c1C [Example M4-38, ethyl 3-methyl-5-(N-(4-acetylbenzyl)-N-phenethylsulfamoyl)benzofuran-2-carboxylate]	50 to 100
CCOC(=O)c1oc2ccc(S(=O)(=O)N(CCc3ccccc3)Cc3ccc(Cl)cc3Cl)cc2c1C [Example M4-60, ethyl 3-methyl-5-(N-(2,4-dichlorobenzyl)-N-phenethylsulfamoyl)benzofuran-2-carboxylate]	50 to 100

same assay, conditions: Table 1.2, FXR antagonistic activity; TR-FRET with CDCA; geometric means of at least two independent runs

SMILES	IC50 [µM]
C/C=C/C(=O)N1CCN(c2ccccc2N(CCc2ccccc2)S(=O)(=O)c2ccc3oc(C(=O)OCC)c(C)c3c2)CC1 [Example M10-120, (E)ethyl-5-(N-(2-(4-(but-2-enoyl)piperazin-1-yl)phenyl)-N-phenethylsulfamoyl)-3-methylbenzofuran-2-carboxylate]	50 to 100
CCOC(=O)c1oc2ccc(S(=O)(=O)N(CCc3ccccc3)c3ccccc3N3CCN(C(=O)c4sccc4Br)C[C@H]3C)cc2c1C [Example M10-153, (R)-ethyl-5-(N-(2-(4-(3-bromothiophene-2-carbonyl)-2-methylpiperazin-1-yl)phenyl)-N-phenethylsulfamoyl)-3-methylbenzofuran-2-carboxylate]	50 to 100
Cc1c(C(=O)O)sc2ccc(S(=O)(=O)N(CCc3cccc(Cl)c3)c3ccccc3N3CCN(C(=O)c4sccc4Br)CC3)cc12 [Example F27-S172, 5-(N-(2-(4-(3-bromothiophene-2-carbonyl)piperazin-1-yl)phenyl)-N-(3-chlorophenethyl)sulfamoyl)-3-methylbenzothiophene-2-carboxylic acid]	0.1 to 10
CCOC(=O)c1oc2ccc(S(=O)(=O)N(CCc3ccccc3)c3ccccc3N3CCN(C(=O)c4ccc(Br)s4)CC3)cc2c1C [Example M10-123, Ethyl 5-(N-(2-(4-(5-bromothiophene-2-carbonyl)piperazin-1-yl)phenyl)-N-phenethylsulfamoyl)-3-methylbenzofuran-2-carboxylate]	50 to 100
Cc1c(C(=O)O)sc2ccc(S(=O)(=O)Nc3ccccc3N3CCN(C(=O)c4sccc4Br)CC3)cc12 [Example F27-S177, 5-(N-(2-(4-(3-bromothiophene-2-carbonyl)piperazin-1-yl)phenyl)sulfamoyl)-3-toluothiophene-2-carboxylic acid]	0.1 to 10
CCOC(=O)c1oc2ccc(S(=O)(=O)N(CCc3ccccc3)c3ccccc3N3CC4CC3CN4C(=O)c3sccc3Br)cc2c1C (stereo not shown) [Example M10-157, Ethyl 5-(N-(2-(5-(3-bromothiophene-2-formyl)-2,5-diazabicyclo[2.2.1]hept-2-yl)phenyl)-N-phenethylsulfamoyl)3-methylbenzofuran-2-carboxylate]	50 to 100
CCOC(=O)c1sc2ccc(S(=O)(=O)N(Cc3ccccc3)c3ccccc3N3CCN(C(=O)c4sccc4Br)CC3)cc2c1C [Example M10-181, Ethyl 5-(N-benzyl-N-(2-(4-(3-bromothiophene-2-carbonyl)piperazin-1-yl)phenyl)sulfamoyl)-3-methylbenzothiophene-2-carboxylate]	50 to 100
